The source of these data is patent US11260118B2, “Immunogenic peptide composition” (Cancer Research Malaysia, priority 2017, dated 2022).

Data set [1] has as its system target cells 195M (MAGED4B) and C666.1F (FJX1).
Experimental: The cytotoxic ELISPOT assay was used to study the response of peptide-pulsed CTLs derived from the patients to target cell lines overexpressing the target antigens. CTLs were co-cultured with target cells, where this culture was re-suspended in complete culture media supplemented with IL-7 and interleukin 2 (IL-2) proteins and applied to IFNγ and granzyme B ELISPOT plates. The cell suspension was further incubated to allow the interaction between CTLs and target cell line before determining the potential killing ability of CTLs against FJX1 and MAGED4b expressing target cells.
Dendritic cells from patients were isolated and subsequently used as antigen presenting cells. Briefly, PBMCs were re-suspended in macrophage-serum free media (M-SFM) (Gibco, Thermo Fisher, MA, USA), seeded in a 6-well plate and incubated for 1 hour at 37° C. After incubation, non-adherent cells from PBMCs were collected, rinsed in HBSS and then re-suspended in complete culture media contained 10 ng/ml IL-7. Approximately 2-5×10^5 cells per well were seeded into round bottom 96-well plates. Cells were then incubated for 2-5 days at 37° C. for T cell expansion with the addition of 50 μg/ml of peptides. The adherent cells resulting from the incubation, were cultured at 37° C. for 2-5 days in M-SFM in the presence of 100 ng/ml GM-CSF and 25 ng/ml IL-4 to induce differentiation of dendritic cells (DCs). […]
The subject of data set [2] is mouse macrophage cell line RAW264.7.
Another data set relates to HNSCC. The conditions noted are these: cited from earlier work.
Data set [3] concerns recurrent or metastatic HNSCC. The following applies: human, in vivo; cited from earlier work.

Where no end group is shown, it is not given here.

For SLYNTYATL [HIV peptide], in data set [1], the “IFNγ and granzyme B secretion / cytotoxic T cell response after in vitro peptide stimulation” value is “induces increased levels of IFNγ and Granzyme B secretion”. In the case of WLLALGSLLAL [F1, WLLALGSLLAL], in data set [2], the “degree of inflammation / iNOS accumulation” value is “low” and the “production of nitrite, fold lower than LPS positive control” value was found to be 10 fold.

As for nivolumab, the “overall survival rate of HNSCC patients” value with HNSCC (16% in standard therapy group) is 36%. For the same substance, in the data set on HNSCC (human, in vivo), the “grade 3 or grade 4 events versus standard therapy” value is “fewer grade 3 or grade 4 events”, the “response rate of HNSCC patients” value is 13% and the “survival longer than standard therapy group” value is given as 2.4 months. Regarding pembrolizumab, in data set [3], the “objective response rate (complete or partial response of tumour size reduction)” value is on record as 16%. Turning to RLSLLLVIL [M6], the “degree of inflammation / iNOS accumulation” value in data set [2] is “low”.
